In PubChem BioAssay (NCI):
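96-well plates; 48 h exposure; 5 concentrations. Endpoints by linear interpolation between flanking doses. Not reached: highest tested concentration assigned. At the GI50, growth is halved. Definition used: TGI = concentration required for complete inhibition of growth.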

Assays:
Test in all cases: NCI tumour cell line growth inhibition, 48 h
[1] = test system: ACHN renal
[2] = test system: SK-MEL-2 melanoma
[3] = test system: HS 578T breast
[4] = test system: UACC-257 melanoma
[5] = test system: HCT-116 colon
[6] = test system: NCI/ADR-RES ovarian
[7] = test system: HOP-92 NSCLC
[8] = test system: OVCAR-4 ovarian
[9] = test system: K-562 leukemia
[10] = test system: SK-MEL-5 melanoma
[11] = test system: SK-MEL-28 melanoma
[12] = test system: MALME-3M melanoma
[13] = test system: CAKI-1 renal
[14] = test system: MOLT-4 leukemia
[15] = test system: EKVX NSCLC
[16] = test system: NCI-H23 lung
[17] = test system: SW-620 colon
[18] = test system: KM12 colon
[19] = test system: SN12C renal
[20] = test system: HOP-62 NSCLC
[21] = test system: HCC-2998 colon
[22] = test system: MCF7 breast
[23] = test system: HL-60(TB) leukemia
[24] = test system: A549 NSCLC
[25] = test system: MDA-MB-435
[26] = test system: SF-268 CNS
[27] = test system: UO-31 renal
[28] = test system: U251 CNS
[29] = test system: OVCAR-3 ovarian
[30] = test system: OVCAR-8 ovarian
[31] = test system: PC-3 prostate
[32] = test system: NCI-H460 lung
[33] = test system: CCRF-CEM leukemia
[34] = test system: RPMI-8226 leukemia
[35] = test system: SK-OV-3 ovarian
[36] = test system: T-47D breast
[37] = test system: MDA-MB-468 breast
[38] = test system: SNB-75 CNS
[39] = test system: SF-295 CNS
[40] = test system: SF-539 CNS
[41] = test system: COLO 205 colon
[42] = test system: OVCAR-5 ovarian
[43] = test system: SNB-19 CNS
[44] = test system: TK-10 renal
[45] = test system: 786-0 renal
[46] = test system: RXF 393 renal
[47] = test system: NCI-H226 lung
[48] = test system: NCI-H522 lung
[49] = test system: M14 melanoma
[50] = test system: LOX IMVI melanoma
[51] = test system: BT-549 breast
[52] = test system: DU-145 prostate
[53] = test system: UACC-62 melanoma
[54] = test system: HT29 colon
[55] = test system: MDA-MB-231 breast
[56] = test system: A498 renal
[57] = test system: HCT-15 colon
[58] = test system: IGROV1 ovarian

Q: CN(C)c1nc(NCCNS(=O)(=O)c2ccc(C(=O)/C=C/c3ccc(F)cc3)cc2)nc(Nc2ccc(F)cc2)n1 was tested. Which GI50 [1] did it give?
A: 3.13 µM

Q: What about the TGI [1] of the same compound?
A: 10.9 µM

Q: What about the GI50 [2] of the same compound?
A: 2.77 µM

Q: What about the TGI [2] of the same compound?
A: 8.31 µM

Q: What about the GI50 [3] of the same compound?
A: 6.3 µM

Q: What about the TGI [3] of the same compound?
A: 71.5 µM

Q: And the GI50 [4]?
A: 3.61 µM

Q: And the TGI [4]?
A: 15.2 µM

Q: What about the GI50 [5] of the same compound?
A: 1.6 µM

Q: What about the TGI [5] of the same compound?
A: 3.01 µM

Q: And the GI50 [6]?
A: 3.25 µM

Q: And the TGI [6]?
A: 11.6 µM

Q: And the GI50 [7]?
A: 2.49 µM

Q: And the TGI [7]?
A: 6.51 µM

Q: What about the GI50 [8] of the same compound?
A: 3.68 µM

Q: What about the TGI [8] of the same compound?
A: 15.6 µM

Q: What about the GI50 [9] of the same compound?
A: 2.42 µM

Q: And the TGI [9]?
A: 6.8 µM

Q: And the GI50 [10]?
A: 2.91 µM

Q: And the TGI [10]?
A: 11.1 µM

Q: What about the GI50 [11] of the same compound?
A: 3.6 µM

Q: What about the TGI [11] of the same compound?
A: 13.7 µM

Q: And the GI50 [12]?
A: 3.42 µM

Q: What about the TGI [12] of the same compound?
A: 12.4 µM

Q: What about the GI50 [13] of the same compound?
A: 3.01 µM

Q: And the TGI [13]?
A: 12.7 µM

Q: And the GI50 [14]?
A: 2.5 µM

Q: And the TGI [14]?
A: 6.5 µM

Q: And the GI50 [15]?
A: 2.95 µM

Q: What about the TGI [15] of the same compound?
A: 10.9 µM

Q: What about the GI50 [16] of the same compound?
A: 4.17 µM

Q: What about the TGI [16] of the same compound?
A: 15.6 µM

Q: And the GI50 [17]?
A: 1.9 µM

Q: And the TGI [17]?
A: 4.02 µM

Q: What about the GI50 [18] of the same compound?
A: 2 µM

Q: What about the TGI [18] of the same compound?
A: 4.41 µM

Q: And the GI50 [19]?
A: 1.7 µM

Q: What about the TGI [19] of the same compound?
A: 3.36 µM

Q: What about the GI50 [20] of the same compound?
A: 8.39 µM

Q: What about the TGI [20] of the same compound?
A: 23.6 µM

Q: And the GI50 [21]?
A: 1.8 µM

Q: And the TGI [21]?
A: 3.45 µM

Q: And the GI50 [22]?
A: 1.8 µM

Q: What about the TGI [22] of the same compound?
A: 3.46 µM

Q: And the GI50 [23]?
A: 2.04 µM

Q: What about the TGI [23] of the same compound?
A: 6.34 µM

Q: And the GI50 [24]?
A: 3.41 µM

Q: And the TGI [24]?
A: 14.2 µM

Q: What about the GI50 [25] of the same compound?
A: 2.32 µM

Q: And the TGI [25]?
A: 5.69 µM

Q: What about the GI50 [26] of the same compound?
A: 3.89 µM

Q: And the TGI [26]?
A: 16.4 µM

Q: What about the GI50 [27] of the same compound?
A: 2.9 µM

Q: And the TGI [27]?
A: 11.9 µM

Q: What about the GI50 [28] of the same compound?
A: 1.99 µM

Q: What about the TGI [28] of the same compound?
A: 4.41 µM

Q: What about the GI50 [29] of the same compound?
A: 1.74 µM

Q: And the TGI [29]?
A: 3.24 µM

Q: And the GI50 [30]?
A: 3.42 µM

Q: What about the TGI [30] of the same compound?
A: 13.9 µM

Q: What about the GI50 [31] of the same compound?
A: 2.76 µM

Q: What about the TGI [31] of the same compound?
A: 10.6 µM

Q: And the GI50 [32]?
A: 2.45 µM

Q: What about the TGI [32] of the same compound?
A: 6.92 µM

Q: What about the GI50 [33] of the same compound?
A: 3.42 µM

Q: What about the TGI [33] of the same compound?
A: > 100 µM

Q: What about the GI50 [34] of the same compound?
A: 2.42 µM

Q: What about the TGI [34] of the same compound?
A: 6.92 µM

Q: What about the GI50 [35] of the same compound?
A: 8.23 µM

Q: What about the TGI [35] of the same compound?
A: 21.6 µM

Q: And the GI50 [36]?
A: 3.02 µM

Q: And the TGI [36]?
A: 11.7 µM

Q: What about the GI50 [37] of the same compound?
A: 2.55 µM

Q: What about the TGI [37] of the same compound?
A: 8.09 µM

Q: What about the GI50 [38] of the same compound?
A: 2.88 µM

Q: And the TGI [38]?
A: 16 µM

Q: What about the GI50 [39] of the same compound?
A: 3.4 µM

Q: What about the TGI [39] of the same compound?
A: 13 µM

Q: And the GI50 [40]?
A: 2.52 µM

Q: And the TGI [40]?
A: 6.78 µM

Q: And the GI50 [41]?
A: 2.38 µM

Q: What about the TGI [41] of the same compound?
A: 6.56 µM

Q: What about the GI50 [42] of the same compound?
A: 3.39 µM

Q: And the TGI [42]?
A: 15 µM

Q: And the GI50 [43]?
A: 4.58 µM

Q: What about the TGI [43] of the same compound?
A: 16.8 µM

Q: What about the GI50 [44] of the same compound?
A: 4.62 µM

Q: What about the TGI [44] of the same compound?
A: 16.6 µM

Q: And the GI50 [45]?
A: 2.56 µM

Q: And the TGI [45]?
A: 6.3 µM

Q: What about the GI50 [46] of the same compound?
A: 2.26 µM

Q: What about the TGI [46] of the same compound?
A: 7.51 µM

Q: What about the GI50 [47] of the same compound?
A: 3.41 µM

Q: And the TGI [47]?
A: 16.4 µM

Q: And the GI50 [48]?
A: 2.81 µM

Q: What about the TGI [48] of the same compound?
A: 8.9 µM

Q: And the GI50 [49]?
A: 2.6 µM

Q: And the TGI [49]?
A: 8.29 µM

Q: What about the GI50 [50] of the same compound?
A: 1.66 µM

Q: And the TGI [50]?
A: 3.07 µM

Q: And the GI50 [51]?
A: 4.87 µM

Q: What about the TGI [51] of the same compound?
A: 17.1 µM

Q: And the GI50 [52]?
A: 3.94 µM

Q: And the TGI [52]?
A: 14 µM

Q: What about the GI50 [53] of the same compound?
A: 3.57 µM

Q: And the TGI [53]?
A: 14.6 µM

Q: What about the GI50 [54] of the same compound?
A: 1.9 µM

Q: What about the TGI [54] of the same compound?
A: 3.65 µM

Q: What about the GI50 [55] of the same compound?
A: 2.64 µM

Q: And the TGI [55]?
A: 8.38 µM

Q: And the GI50 [56]?
A: 6.21 µM

Q: What about the TGI [56] of the same compound?
A: 19.3 µM

Q: And the GI50 [57]?
A: 1.99 µM

Q: What about the TGI [57] of the same compound?
A: 4.28 µM

Q: What about the GI50 [58] of the same compound?
A: 4.27 µM

Q: What about the TGI [58] of the same compound?
A: 15 µM
